What was measured:
Type in all cases: biochemical
[1] = molecular target: T1, JAK3 (Homo sapiens, UniProt P52333); assay: Inhibition of a panel of kinases, in vitro HotSpot kinase assay: JAK3; conditions: D-compounds panel data; 1 μM ATP; read-out: IC50 JAK3
T1 sequence (P52333 1-1124): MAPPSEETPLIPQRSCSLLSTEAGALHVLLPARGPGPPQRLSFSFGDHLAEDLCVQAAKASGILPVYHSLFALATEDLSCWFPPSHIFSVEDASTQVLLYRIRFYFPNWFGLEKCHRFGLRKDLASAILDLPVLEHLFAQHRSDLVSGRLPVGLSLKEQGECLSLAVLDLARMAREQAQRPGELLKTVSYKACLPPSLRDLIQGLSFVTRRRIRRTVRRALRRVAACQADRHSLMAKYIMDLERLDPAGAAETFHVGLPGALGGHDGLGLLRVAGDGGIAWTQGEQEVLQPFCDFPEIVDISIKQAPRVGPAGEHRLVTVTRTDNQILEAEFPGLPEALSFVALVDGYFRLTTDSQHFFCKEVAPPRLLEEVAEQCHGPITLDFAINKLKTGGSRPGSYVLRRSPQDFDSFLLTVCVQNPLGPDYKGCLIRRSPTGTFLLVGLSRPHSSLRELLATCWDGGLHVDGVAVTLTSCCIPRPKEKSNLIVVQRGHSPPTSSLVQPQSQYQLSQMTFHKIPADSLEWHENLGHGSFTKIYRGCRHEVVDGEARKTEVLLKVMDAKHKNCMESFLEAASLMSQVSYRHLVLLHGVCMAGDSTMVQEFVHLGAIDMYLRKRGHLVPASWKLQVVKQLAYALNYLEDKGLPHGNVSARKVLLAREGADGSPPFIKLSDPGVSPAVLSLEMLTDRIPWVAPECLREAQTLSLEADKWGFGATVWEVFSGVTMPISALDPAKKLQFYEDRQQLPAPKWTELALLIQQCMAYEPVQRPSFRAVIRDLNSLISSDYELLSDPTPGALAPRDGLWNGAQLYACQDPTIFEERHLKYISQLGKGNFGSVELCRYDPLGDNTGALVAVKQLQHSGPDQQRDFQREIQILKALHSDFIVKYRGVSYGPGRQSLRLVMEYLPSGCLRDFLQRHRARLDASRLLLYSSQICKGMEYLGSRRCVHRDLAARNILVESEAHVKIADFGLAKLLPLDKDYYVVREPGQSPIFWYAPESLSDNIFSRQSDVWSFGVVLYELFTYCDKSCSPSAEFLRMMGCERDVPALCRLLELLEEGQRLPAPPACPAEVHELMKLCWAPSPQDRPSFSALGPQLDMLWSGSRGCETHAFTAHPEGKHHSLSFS

[2] = molecular target: T2, TEC (Homo sapiens, UniProt P42680); assay: Inhibition of a panel of kinases, in vitro HotSpot kinase assay: TEC; conditions: D-compounds panel data; 1 μM ATP
T2 sequence (P42680 1-631): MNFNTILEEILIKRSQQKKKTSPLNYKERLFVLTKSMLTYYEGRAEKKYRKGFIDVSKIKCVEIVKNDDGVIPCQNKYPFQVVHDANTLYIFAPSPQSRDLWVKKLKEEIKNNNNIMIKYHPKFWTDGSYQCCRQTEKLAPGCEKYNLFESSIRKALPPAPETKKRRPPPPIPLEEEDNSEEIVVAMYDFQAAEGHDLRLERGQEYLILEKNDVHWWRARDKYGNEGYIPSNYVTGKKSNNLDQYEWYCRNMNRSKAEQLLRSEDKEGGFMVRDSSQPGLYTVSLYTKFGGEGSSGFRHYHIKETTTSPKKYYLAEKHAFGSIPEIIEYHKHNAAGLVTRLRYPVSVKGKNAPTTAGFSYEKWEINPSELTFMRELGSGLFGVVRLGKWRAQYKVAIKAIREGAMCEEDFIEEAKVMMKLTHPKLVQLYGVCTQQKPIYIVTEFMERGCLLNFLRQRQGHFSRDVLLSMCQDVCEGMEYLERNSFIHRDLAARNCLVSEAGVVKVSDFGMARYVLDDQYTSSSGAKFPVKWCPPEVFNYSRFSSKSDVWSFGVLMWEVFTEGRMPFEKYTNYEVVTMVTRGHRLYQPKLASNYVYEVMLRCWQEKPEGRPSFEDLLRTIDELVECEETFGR
Description: (§1) The degree of inhibition of a panel of kinases is determined using the in vitro HotSpot kinase assay (purified enzymes, ^33P-ATP, an appropriate substrate and 1 μM ATP).

[3] = molecular target: SRC (Homo sapiens, UniProt P12931); assay: Inhibition of a panel of kinases, in vitro HotSpot kinase assay: SRC; conditions: D-compounds panel data; 1 μM ATP
Chain of SRC (P12931 whole entry): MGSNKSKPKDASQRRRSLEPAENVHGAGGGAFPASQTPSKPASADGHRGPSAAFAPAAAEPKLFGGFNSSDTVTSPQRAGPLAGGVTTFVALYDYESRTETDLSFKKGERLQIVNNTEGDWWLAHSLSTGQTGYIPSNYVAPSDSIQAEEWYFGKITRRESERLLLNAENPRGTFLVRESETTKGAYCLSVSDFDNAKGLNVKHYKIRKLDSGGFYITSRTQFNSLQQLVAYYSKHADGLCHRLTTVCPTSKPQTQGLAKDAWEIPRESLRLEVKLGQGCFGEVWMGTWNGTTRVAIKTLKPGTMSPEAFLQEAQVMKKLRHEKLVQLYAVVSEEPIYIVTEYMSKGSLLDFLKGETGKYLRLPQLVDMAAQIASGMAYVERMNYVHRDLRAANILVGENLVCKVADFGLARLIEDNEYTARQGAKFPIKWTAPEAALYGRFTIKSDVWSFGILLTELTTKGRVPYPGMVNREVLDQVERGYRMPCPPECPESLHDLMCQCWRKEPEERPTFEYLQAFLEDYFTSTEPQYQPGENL
Description: as §1

[4] = molecular target: LCK (Homo sapiens, UniProt P06239); assay: Inhibition of a panel of kinases, in vitro HotSpot kinase assay: LCK; conditions: D-compounds panel data; 1 μM ATP; read-out: IC50 LCK
Chain of LCK (P06239 whole entry): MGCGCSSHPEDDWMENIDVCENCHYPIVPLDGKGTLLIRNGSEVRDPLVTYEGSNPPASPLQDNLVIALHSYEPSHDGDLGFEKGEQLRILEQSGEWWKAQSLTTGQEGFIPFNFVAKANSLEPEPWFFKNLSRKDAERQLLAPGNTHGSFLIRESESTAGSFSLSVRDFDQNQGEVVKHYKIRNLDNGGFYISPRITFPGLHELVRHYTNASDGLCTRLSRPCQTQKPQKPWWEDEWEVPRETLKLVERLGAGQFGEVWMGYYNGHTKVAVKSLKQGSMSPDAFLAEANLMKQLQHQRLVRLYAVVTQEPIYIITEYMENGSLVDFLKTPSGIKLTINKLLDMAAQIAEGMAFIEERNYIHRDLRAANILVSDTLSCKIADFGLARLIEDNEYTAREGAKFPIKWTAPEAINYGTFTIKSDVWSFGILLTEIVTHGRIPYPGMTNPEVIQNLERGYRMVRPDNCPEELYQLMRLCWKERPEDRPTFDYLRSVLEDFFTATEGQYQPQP

[5] = molecular target: T3, ITK (Homo sapiens, UniProt Q08881); assay: Inhibition of a panel of kinases, in vitro HotSpot kinase assay: ITK; conditions: D-compounds panel data; 1 μM ATP
T3 sequence (Q08881 1-620): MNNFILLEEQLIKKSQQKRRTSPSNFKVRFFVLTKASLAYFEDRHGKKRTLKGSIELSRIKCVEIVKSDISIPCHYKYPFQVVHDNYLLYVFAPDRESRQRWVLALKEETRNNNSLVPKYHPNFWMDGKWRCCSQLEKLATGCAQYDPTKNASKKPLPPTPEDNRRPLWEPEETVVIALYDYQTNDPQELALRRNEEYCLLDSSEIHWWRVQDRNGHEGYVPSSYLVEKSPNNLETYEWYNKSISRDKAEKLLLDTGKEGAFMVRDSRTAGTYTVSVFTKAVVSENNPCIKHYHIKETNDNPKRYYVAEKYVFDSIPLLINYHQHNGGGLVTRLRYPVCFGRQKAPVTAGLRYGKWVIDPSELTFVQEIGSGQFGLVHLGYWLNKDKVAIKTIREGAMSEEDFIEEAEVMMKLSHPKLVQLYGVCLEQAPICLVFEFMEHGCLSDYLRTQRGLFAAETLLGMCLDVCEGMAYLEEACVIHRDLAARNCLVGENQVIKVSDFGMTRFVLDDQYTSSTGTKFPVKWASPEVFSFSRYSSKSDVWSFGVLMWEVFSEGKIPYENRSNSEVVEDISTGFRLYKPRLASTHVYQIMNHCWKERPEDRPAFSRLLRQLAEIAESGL
Description: as §1

| IC50 [1] [nM] | IC50 [2] [nM] | IC50 [3] [nM] | IC50 [4] [nM] | IC50 [5] [nM] | SMILES |
| --- | --- | --- | --- | --- | --- |
| > 10000 | 1000 to 10000 | 1000 to 10000 | 1000 to 10000 | > 10000 | Cc1ccc(-c2cnc([C@@H]3CCCN(c4cnc(C(N)=O)c(Nc5cc(C)ns5)n4)C3)[nH]2)cc1 [Example D-137, 3-[(3-methyl-1,2-thiazol-5-yl)amino]-5-[(3R)-3-[5-(4-methylphenyl)-1H-imidazol-2-yl]piperidin-1-yl]pyrazine-2-carboxamide] |
| 100 to 1000 | 10 to 100 | 10 to 100 | 10 to 100 | 10 to 100 | C[C@@H]1[C@H](NC(=O)c2ccc(C3CC3)cc2)CCCN1c1cnc(C(N)=O)c(Nc2cc(CN3CCCCC3)ns2)n1 [Example D-140, 5-[(2R,3R)-3-(4-cyclopropylbenzamido)-2-methylpiperidin-1-yl]-3-{[3-(piperidin-1-ylmethyl)-1,2-thiazol-5-yl]amino}pyrazine-2-carboxamide] |
| 100 to 1000 | 100 to 1000 | 10 to 100 | 100 to 1000 | 100 to 1000 | C[C@@H]1[C@H](NC(=O)N(C)C)CCCN1c1cnc(C(N)=O)c(Nc2ccc(N3CCN(C)CC3)cc2)n1 [Example D-111, 5-[(2R,3R)-3-[(dimethylcarbamoyl)amino]-2-methylpiperidin-1-yl]-3-{[4-(4-methylpiperazin-1-yl)phenyl]amino}pyrazine-2-carboxamide] |
| 1000 to 10000 | 10 to 100 | 10 to 100 | 10 to 100 | 100 to 1000 | C[C@@H]1[C@H](NC(=O)c2ccc(C3CC3)cc2F)CCCN1c1cnc(C(N)=O)c(Nc2cc(CN(C)C)ns2)n1 [Example D-122, 5-[(2R,3R)-3-(4-cyclopropyl-2-fluorobenzamido)-2-methylpiperidin-1-yl]-3-({3-[(dimethylamino)methyl]-1,2-thiazol-5-yl}amino)pyrazine-2-carboxamide] |
| 1000 to 10000 | 100 to 1000 | 100 to 1000 | 100 to 1000 | 1000 to 10000 | C[C@@H]1[C@H](NC(=O)N(C)C)CCCN1c1cnc(C(N)=O)c(Nc2ccc(C(=O)N3CCN(C)CC3)cc2)n1 [Example D-110, 5-[(2R,3R)-3-[(dimethylcarbamoyl)amino]-2-methylpiperidin-1-yl]-3-{[4-(4-methylpiperazine-1-carbonyl)phenyl]amino}pyrazine-2-carboxamide] |
| 1000 to 10000 | 1000 to 10000 | 1000 to 10000 | 100 to 1000 | 1000 to 10000 | C[C@@H]1[C@H](NC(=O)c2ccc(C3CC3)cc2F)CCCN1c1cnc(C(N)=O)c(Nc2ccc(CN3CCN(C)CC3)cc2)c1 [Example D-125, 5-[(2R,3R)-3-(4-cyclopropyl-2-fluorobenzamido)-2-methylpiperidin-1-yl]-3-({4-[(4-methylpiperazin-1-yl)methyl]phenyl}amino)pyridine-2-carboxamide] |
| 100 to 1000 | 10 to 100 | 10 to 100 | 100 to 1000 | 100 to 1000 | C[C@@H]1[C@H](NC(=O)c2ccc(C3CC3)cc2F)CCCN1c1cnc(C(N)=O)c(Nc2ccc(N3CCN(C4CCCC4)CC3)cc2)n1 [Example D-5, 3-{[4-(4-cyclopentylpiperazin-1-yl)phenyl]amino}-5-[(2R,3R)-3-(4-cyclopropyl-2-fluorobenzamido)-2-methylpiperidin-1-yl]pyrazine-2-carboxamide] |
| 1000 to 10000 | 10 to 100 | 100 to 1000 | 100 to 1000 | 100 to 1000 | C[C@@H]1[C@H](NC(=O)c2ccc(C3CC3)cc2F)CCCN1c1cnc(C(N)=O)c(Nc2ccc(N3CCN(C)CC3=O)cc2)n1 [Example D-10, 5-[(2R,3R)-3-(4-cyclopropyl-2-fluorobenzamido)-2-methylpiperidin-1-yl]-3-{[4-(4-methyl-2-oxopiperazin-1-yl)phenyl]amino}pyrazine-2-carboxamide] |
| 100 to 1000 | 100 to 1000 | 100 to 1000 | 100 to 1000 | 1000 to 10000 | Cc1cc(Nc2nc(N3CCCC(c4ncc(-c5ccccc5)[nH]4)C3)cnc2C(N)=O)sn1 [Example D-164, 3-[(3-methyl-1,2-thiazol-5-yl)amino]-5-[3-(4-phenyl-3H-imidazol-2-yl)piperidin-1-yl]pyrazine-2-carboxamide] |
| 1000 to 10000 | 100 to 1000 | 100 to 1000 | 100 to 1000 | 100 to 1000 | C[C@@H]1[C@H](NC(=O)c2ccc(C3CC3)cc2F)CCCN1c1cnc(C(N)=O)c(Nc2ccc(S(C)(=O)=O)cc2)n1 [Example D-133, 5-[(2R,3R)-3-(4-cyclopropyl-2-fluorobenzamido)-2-methylpiperidin-1-yl]-3-[(4-methanesulfonylphenyl)amino]pyrazine-2-carboxamide] |
| 1000 to 10000 | 100 to 1000 | 100 to 1000 | 100 to 1000 | 1000 to 10000 | Cc1ccc(-c2cnc([C@H]3CCCN(c4cnc(C(N)=O)c(Nc5cc(C)ns5)n4)C3)[nH]2)cc1 [Example D-136, 3-[(3-methyl-1,2-thiazol-5-yl)amino]-5-[(3S)-3-[5-(4-methylphenyl)-1H-imidazol-2-yl]piperidin-1-yl]pyrazine-2-carboxamide] |

| SMILES | IC50 [1] [nM] | IC50 [2] [nM] | IC50 [3] [nM] | IC50 [4] [nM] | IC50 [5] [nM] |
| --- | --- | --- | --- | --- | --- |
| C[C@@H]1[C@H](NC(=O)c2ccc(C3CC3)cc2F)CCCN1c1cnc(C(N)=O)c(Nc2ccc(C3(C)CCN(C4CC4)CC3)cc2)n1 [Example D-138, 5-[(2R,3R)-3-(4-cyclopropyl-2-fluorobenzamido)-2-methylpiperidin-1-yl]-3-{[4-(1-cyclopropyl-4-methylpiperidin-4-yl)phenyl]amino}pyrazine-2-carboxamide] | 10 to 100 | 10 to 100 | 100 to 1000 | 10 to 100 | 100 to 1000 |
| C[C@@H]1[C@H](NC(=O)Nc2cccnc2)CCCN1c1cnc(C(N)=O)c(Nc2ccc(C3(C)CCN(C4CCCC4)CC3)cc2)n1 [Example D-9, 3-{[4-(1-cyclopentyl-4-methylpiperidin-4-yl)phenyl]amino}-5-[(2R,3R)-2-methyl-3-{[(pyridin-3-yl)carbamoyl]amino}piperidin-1-yl]pyrazine-2-carboxamide] | 100 to 1000 | 10 to 100 | ≤ 10 | < 10 | ≤ 10 |
